This is an account of results in publication PMC5369982, “Near infrared fluorescent imaging of choline kinase alpha expression and inhibition in breast tumors” (Oncotarget, 2017).

One series has as its target ChoKα (Homo sapiens, UniProt P35790). Put plainly: ChoKα activity assay (14C-choline phosphorylation to 14C-PC in cells). In kind it is cell-based. On the set-up: endogenous in cells; host or cells: MCF7-EV, MCF7-CK+ (stably overexpressing ChoK), MDA-MB-231, 4175-Luc+. The settings on record: analyzed after 2 h, ± SEM, 3 experiments, read-out: IC50 (14C-PC production). The method, then: Cells in 6-well plates (1.0 × 10^6 cells/well) were incubated for 24 h then treated with JAS239 or MN58b. After 1 h, cells were spiked for 1 h with 0.5 μCi/mL [methyl-^14C]-choline (PerkinElmer) and fixed with trichloroacetic acid. Aqueous cellular extracts were separated by thin layer chromatography (TLC) and the ^14C-PC production measured by autoradiography on a Fujifilm FLA-7000 using previously described methods. […]
Supplementary Figure 1: Characterization of ChoKα in a panel of human breast cancer cell lines. (A) Determination of
ChoKα expression by Western blot confirms elevated ChoKα protein found in MCF7-CK+ cells. (B) Conversion of 14C-choline to 14C-PC
follows the pattern expected from ChoKα expression levels in (A). (C–F) Dose-response curves comparing the effect of MN58b ( C, D) or
JAS239 (E, F) on 14C-choline phosphorylation in MCF7-EV and MCF7-CK+ cells (C, E) or MDA-MB-231 and 4175-Luc+ cells (D, F).
Values are reported as a percentage of the untreated EV group (for MCF7 cells) or untreated MDA-MB-231 group (for MDA-MB-231 and
4175-Luc+), and represent ± SEM for 3 separate experiments.

Series [1] in a line: Blood toxicology after the 5-day treatment. The format is in vivo. The settings on record: 5 days i.p.; MN58b 2 mg/kg, JAS239 4 mg/kg. The method, then: (§1) A cohort of 15 mice was inoculated with MDA-MB-231 cells. When a volume of 300 μL was reached, tumors were scanned using MRS. Tumor volumes were measured using T2-weighted images. The animals were separated into treatment groups, and for 5 consecutive days each group was injected i.p. with 100 μL of DMSO/saline vehicle (n = 5), 2 mg/kg MN58b (n = 4), or 4 mg/kg JAS239 (n = 3). Initial cohort sizes were 5 per condition, but some animals had to be removed from the study because the treatment was so effective that we were unable to place voxels within post-treatment tumors that were too small. Follow-up MRI/MRS scanning was performed on day 7 to assess tumor growth inhibition and changes in metabolite levels. After imaging, blood was collected into heparin-coated tubes by cardiac puncture. Resected tumors were embedded in Optimum Cryo-Temperature (Sakura Finetek), flash-frozen in liquid nitrogen, and stored at –80 °C. Blood samples were submitted to the Ryan Veterinary Clinic Diagnostic labs for toxicology.
Supplementary Figure 6: Both ChoKα inhibitors show early signs of tumor growth inhibition and apoptosis, however JAS239 is better tolerated in animals. (A) Vehicle-treated tumors increased in size during the treatment regimen, whereas the tumor volumes of MN58b and JAS239 treated mice were unchanged. […]

The subject of another series is 4175-Luc+ tumors. Briefly: Tumor growth inhibition. The settings on record: 5-day i.p. regimen from day 3 after inoculation; MN58b 2 mg/kg/day, JAS239 4 mg/kg/day. The format is in vivo, mouse. The method, then: All animal studies were approved by the Institutional Animal Care and Use Committee of the University of Pennsylvania. Six week old female athymic nude Foxn1^nu/nu mice (National Cancer Institute) were housed in a temperature-controlled environment with 12 h light/dark cycle. Anesthesia was induced using 2% isoflurane in oxygen for all experiments. For MCF7 tumors, mice were supplemented with 60-day release 0.36 mg 17β-estradiol tablets (Innovative Research of America) using a trochar in the nape of the neck. After 1 week, 4 × 10^6 cells in Matrigel (BD Biosciences) were inoculated into the left (CK+) and contralateral (EV) mammary fat pads. Subcutaneous xenografts, including those analyzed in MRI/MRS studies, were grown on the shoulder to allow for cloaking of the kidneys during optical imaging studies. Tumor growth was determined via caliper measurement of three orthogonal dimensions and volume calculated as length * width * height * π/6.
A cohort of 15 mice was inoculated with 4175-Luc+ tumors. Beginning 3 days post-inoculation, animals received a 100-μL i.p. injection of either control DMSO/saline, 2 mg/kg MN58b or 4 mg/kg JAS239 in DMSO/saline daily for 5 days. Tumor volumes were assessed by caliper measurement.

Another series deals with MDA-MB-231 tumors. Briefly: Histopathology of treated tumors (H&E, Ki67, caspase-3). In kind it is in vivo, mouse. The settings on record: 5 days i.p.; MN58b 2 mg/kg, JAS239 4 mg/kg; vs control. The method, then:
as §1
Hematoxylin and eosin staining and immunohistochemistry was performed as described previously. Caspase-3 (R&D Systems AF835) and Ki67 (Abcam ab16667) antibody staining was performed on a Bond Max automated staining system (Leica Microsystems) using the Bond Intense R staining kit (Leica Microsystems DS9263). An Aperio Scan Scope OS (Aperio Technology) was used to scan slides, and the Image Scope nuclear staining algorithm (version 9; Aperio Technology) was used to quantify Ki67 and caspase-3 positive nuclei in representative regions of each slide.

Like-named read-outs stand apart in the source and are kept apart here.

ChoKα, sequence (P35790 whole entry): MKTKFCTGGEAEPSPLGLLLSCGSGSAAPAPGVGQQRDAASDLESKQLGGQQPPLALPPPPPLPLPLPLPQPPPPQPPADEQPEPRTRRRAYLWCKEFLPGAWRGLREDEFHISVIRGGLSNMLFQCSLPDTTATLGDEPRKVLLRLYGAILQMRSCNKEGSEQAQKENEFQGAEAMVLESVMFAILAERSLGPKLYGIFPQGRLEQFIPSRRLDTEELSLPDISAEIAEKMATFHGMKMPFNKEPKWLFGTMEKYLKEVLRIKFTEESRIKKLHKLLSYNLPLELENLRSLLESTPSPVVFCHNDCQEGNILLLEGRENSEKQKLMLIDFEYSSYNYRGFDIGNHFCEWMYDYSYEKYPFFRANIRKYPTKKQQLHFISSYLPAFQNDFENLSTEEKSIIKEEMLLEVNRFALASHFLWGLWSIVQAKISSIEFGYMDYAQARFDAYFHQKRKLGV

Usually IC50 stands for the concentration that inhibits the measured activity by half. Turning to `CC1(C)C(=C/C=C/C=C/C=C/C2=[N+](CCO)c3ccccc3C2(C)C)N(CCO)c2ccccc21` [JAS239], the IC50 at ChoKα (4175-Luc+ cells) amounted to 9.89 ± 0.24 µM; on ChoKα (MCF7-CK+ cells) it was 10.3 ± 2.48 µM; at ChoKα (MCF7-EV cells), 11.1 ± 5.64 µM; on ChoKα (MDA-MB-231 cells) it was 9.92 ± 0.22 µM. In series [1], the Toxicology entry was “No observable or measurable toxicity”. The “Tumor volume compared to control animals” value in the series on 4175-Luc+ tumors is recorded as “significantly smaller tumor volumes”. In addition, the Caspase-3 levels result with MDA-MB-231 tumors is given as “higher caspase-3 levels”. Moreover, in the series with MDA-MB-231 tumors, the “Cell density (H&E)” value is given as “significant reduction in cell density”. In addition, the “Percentage of Ki67-positive cells” value in the series on MDA-MB-231 tumors was “significantly reduced”.

Consider MN58b [reference compound], for which the IC50 at ChoKα (4175-Luc+ cells) was found to be 4.59 ± 0.55 µM; at ChoKα (MCF7-CK+ cells), 2.36 ± 0.28 µM; at ChoKα (MCF7-EV cells), 3.85 ± 0.42 µM; at ChoKα (MDA-MB-231 cells), 4.36 ± 1.37 µM. Moreover, the Toxicology result in series [1] is “elevation of blood urea nitrogen”. In addition, in the series on 4175-Luc+ tumors, the “Tumor volume compared to control animals” value was “significantly smaller tumor volumes”. Besides, in the series on MDA-MB-231 tumors, the Caspase-3 levels entry was “higher caspase-3 levels”. The “Cell density (H&E)” value in the series with MDA-MB-231 tumors is recorded as “significant reduction in cell density”. Moreover, the “Percentage of Ki67-positive cells” value with MDA-MB-231 tumors was “significantly reduced”.
